# Results from paper PMC10692721, “Drug discovery for heart failure targeting myosin-binding protein C” (The Journal of Biological Chemistry, 2023).
# Columns and labels:
# [1] = system: TMR-cC0-C2 (C0-C2 fragment of human cMyBP-C); assay: FLT-TMR concentration-response assay (FLT of TMR on cC0-C2, no actin); type: binding; settings: for cC0-C2/cC0-C2#P (ratio of FLT changes) / cC0-C2 FLT change (% change from DMSO, FLT of TMR-MyBP-C): 60 μM compound; for effect on FLT of TMR-cC0-C2 (in words): concentration-response, no actin
# Experimental: (§1) Compounds identified as initial hits were further examined to determine the concentration–response curves for seven conditions ([1]): FMAL-actin alone identified actin-binding compounds that alter the FLT of FMAL-actin ([2]).
# (§2) Fluorescence lifetime (FLT) measurements were acquired using a high-throughput FLT plate reader (Fluorescence Innovations, Inc) ([14], [27]), provided by Photonic Pharma LLC. […] The observed waveforms were analyzed as described previously ([15], [28]).
# (§3) The primary hits were dissolved in DMSO to make a 10 mM stock solution, which was serially diluted in 96-well mother plates. Hits were screened at eight concentrations (0.5–100 μM). […] Compounds (1 μl) were transferred from the mother plates into 384-well plates using a Mosquito HV liquid handler (TTP Labtech Ltd, Hertfordshire, UK). The same procedure of dispensing as for the pilot screening was applied in the concentration-response assays. Concentration dependence of the FLT-FRET (E/EDMSO) or FLT-TMR (Δτ) change data was fit to a Hill equation only under certain conditions to help guide the eye (Fig. 4).
# [2] = system: TMR-fC1-C2 (C1-C2 of fast skeletal MyBP-C); assay: FLT-TMR concentration-response assay, fC1-C2; type: binding; settings: 60 μM compound
# Experimental: as §1, §2, §3
# [3] = system: FMAL-actin plus TMR-cC0-C2; assay: Selleck library HTS, 473 nm excitation (FLT of FMAL-actin with TMR-cC0-C2, FLT-FRET); type: binding, human; settings: for 473-nm Δτ, Repeat 1 / 473-nm Δτ, Repeat 2: initial screen, 30 μM compound; for 473-nm z-score (based on avg Δτ): robust z-score, hit threshold ±4, 30 μM compound
# Experimental: as §2
# (§4) In total, 50 nl of each solution was dispensed in DMSO using an automated Echo 550 acoustic liquid dispenser (Labcyte). Compounds were formatted into the assay plates, at a final concentration of 30 μM, with the first two and second to last columns loaded with DMSO only (compound-free controls). In the final column, 30 μM of suramin was loaded as a positive control (tool compound). These assay plates were then heat-sealed using a PlateLoc Thermal Microplate Sealer (Agilent Technologies) and stored at −20 °C. Before screening, compound plates were equilibrated to room temperature (∼25 °C). […] Plates were incubated at room temperature for 60 min before recording the data with the fluorescence lifetime plate reader.
# After fitting the waveforms with a single exponential decay to quantify donor FLT, the change in FLT (Δτ) was computed by performing a moving median subtraction in the order the plate was scanned with a window size of half a plate row […]. The reasons for this are twofold. Firstly, plate gradients are often observed due to the heating of the digitizer during acquisition.
# To account for the necessity to correct for plate gradients in the computation of E, the median τDMSO prior to the application of the moving median correction was added to each well’s Δτ value to recover a rescaled value of τ.
# [4] = system: PKA-phosphorylated TMR-cC0-C2 (cC0-C2#P); assay: FLT-TMR concentration-response assay, PKA-phosphorylated cC0-C2; type: binding, human; settings: 60 μM compound
# Experimental: as §1, §2, §3
# [5] = system: TMR-cC0-C2; assay: Selleck library HTS, 532 nm excitation (FLT of TMR-cC0-C2 in presence of FMAL-actin); type: binding, human; settings: for 532-nm Δτ, Repeat 1 / 532-nm Δτ, Repeat 2: initial screen, 30 μM compound; for 532-nm z-score (based on avg Δτ): robust z-score, hit threshold ±4, 30 μM compound; for effect on FLT of TMR-cC0-C2 in the initial screen (in words): both replicates, actin present
# Experimental: as §2, §4
# Hits that exceeded the z-score hit criteria in the donor-only screen were excluded from consideration. To remove compounds with confounding fluorescence properties, a similarity index (SI, specifically the cosine distance, Equation 5) was computed using data from the SUPR instrument by comparing a region (500–540 nm) of the donor-only spectrum (I^(a)) for each well to that of the plate-wide average DMSO spectrum (I^(b)) in the same wavelength band ([29]). Compounds that exceeded an SI robust z-score of 4 were deemed likely fluorescent compounds and removed from consideration.(5) SI=1−∑Ii(a).Ii(b)/∑Ii(a).Ii(a)∑Ii(b).Ii(b)
SMILES,cC0-C2/cC0-C2#P (ratio of FLT changes) [1],"cC0-C2 FLT change (% change from DMSO, FLT of TMR-MyBP-C) [1] [%]",cC0-C2/fC1-C2 (ratio of FLT changes) [2],"fC1-C2 FLT change (% change from DMSO, FLT of TMR-MyBP-C) [2] [%]","473-nm Δτ, Repeat 1 [3] [ns]","473-nm Δτ, Repeat 2 [3] [ns]",473-nm z-score (based on avg Δτ) [3],"cC0-C2#P FLT change (% change from DMSO, FLT of TMR-MyBP-C) [4] [%]","532-nm Δτ, Repeat 1 [5] [ns]","532-nm Δτ, Repeat 2 [5] [ns]",532-nm z-score (based on avg Δτ) [5],effect on FLT of TMR-cC0-C2 (in words) [1],effect on FLT of TMR-cC0-C2 in the initial screen (in words) [5]
COc1nc2ccc(Br)cc2cc1[C@@H](c1ccccc1)[C@@](O)(CCN(C)C)c1cccc2ccccc12.O=C(O)/C=C/C(=O)O [Bedaquiline fumarate],0.7,−4.5,0.7,6.7,-0.324,-0.412,-20.57,−6.5,-0.009,-0.105,-3.45,,
Oc1cccc2cccnc12 [8-Hydroxyquinoline],,,,,-0.025,-0.188,-5.91,,-0.167,-0.285,-13.76,did not,strongly reduced
CCN(CC)CCCC(C)Nc1ccnc2cc(Cl)ccc12 (centres unmarked) [Chloroquine phosphate],,2.5,,1.9,-0.042,-0.069,-3.07,,0.311,0.320,19.30,,
Cc1cn(-c2cc(NC(=O)c3ccc(C)c(Nc4nccc(-c5cccnc5)n4)c3)cc(C(F)(F)F)c2)cn1.Cl [Nilotinib hydrochloride],0.7,10.1,0.6,15.6,-0.063,-0.031,-2.59,14.1,0.121,0.105,6.94,,
Cc1nc(-c2ccc(OCC(C)C)c(C#N)c2)sc1C(=O)O [Febuxostat],0.8,9.6,0.7,14.6,0.070,0.043,3.18,12.1,0.129,0.132,8.01,,
CC1(C)CCC(C)(C)c2cc(NC(=O)c3ccc(C(=O)O)cc3)ccc21 [Tamibarotene],0.7,5.2,0.9,5.9,0.075,0.067,4.00,7.2,0.075,0.106,5.55,,
CCCCNc1ccc(C(=O)OCCOCCOCCOCCOCCOCCOCCOCCOCCOC)cc1 [Benzonatate],,,,,0.108,-0.001,3.05,,-0.101,-0.124,-6.82,did not,strongly reduced
